{"source": "paper PMC9098912", "about": "“Molecular basis for inhibiting human glucose transporters by exofacial inhibitors” (Nature Communications, 2022)", "key": {"WT GLUT3": {"molecular_target": "T1, WT GLUT3 (Homo sapiens, UniProt P11169, N43T)", "T1 construct": "His10 (N); made in house; host or cells: Sf9 insect cells (baculovirus)", "T1 sequence (P11169 1-496 N43T)": "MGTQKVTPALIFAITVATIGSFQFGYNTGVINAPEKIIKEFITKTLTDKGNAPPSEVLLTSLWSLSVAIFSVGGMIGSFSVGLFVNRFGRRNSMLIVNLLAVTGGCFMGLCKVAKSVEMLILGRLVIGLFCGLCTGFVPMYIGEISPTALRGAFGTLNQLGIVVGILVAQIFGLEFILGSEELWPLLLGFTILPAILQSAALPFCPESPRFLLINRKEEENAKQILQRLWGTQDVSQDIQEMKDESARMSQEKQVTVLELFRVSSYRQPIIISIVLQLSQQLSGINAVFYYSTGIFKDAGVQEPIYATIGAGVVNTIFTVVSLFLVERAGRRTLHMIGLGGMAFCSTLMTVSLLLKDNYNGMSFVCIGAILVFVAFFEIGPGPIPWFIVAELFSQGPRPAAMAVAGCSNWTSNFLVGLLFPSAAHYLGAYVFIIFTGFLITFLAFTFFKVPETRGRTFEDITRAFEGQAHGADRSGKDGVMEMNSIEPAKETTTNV", "test": "Microscale thermophoresis (MST) binding assay", "parameters": "Figure 1e middle: MST binding curve, Mean / Figure 1e right: MST binding curve, Mean / Figure 2c: MST binding curve, Mean: unit not given here", "details": "for Figure 2c: MST binding curve, Mean: GLUT3, log[SA47]", "procedure": "(§1) All mutants were generated by standard PCR-based strategy.\n(§2) Inhibitors with serial dilutions were mixed with indicated protein. […] MST analyses were conducted on a Monolith NT. […] The MST data was analyzed by Monolith NT.115."}, "GLUT3 F70A": {"molecular_target": "GLUT3 F70A (Homo sapiens, UniProt P11169, F70A/N43T)", "sequence (P11169 whole entry N43T/F70A, the tested form may be a part)": "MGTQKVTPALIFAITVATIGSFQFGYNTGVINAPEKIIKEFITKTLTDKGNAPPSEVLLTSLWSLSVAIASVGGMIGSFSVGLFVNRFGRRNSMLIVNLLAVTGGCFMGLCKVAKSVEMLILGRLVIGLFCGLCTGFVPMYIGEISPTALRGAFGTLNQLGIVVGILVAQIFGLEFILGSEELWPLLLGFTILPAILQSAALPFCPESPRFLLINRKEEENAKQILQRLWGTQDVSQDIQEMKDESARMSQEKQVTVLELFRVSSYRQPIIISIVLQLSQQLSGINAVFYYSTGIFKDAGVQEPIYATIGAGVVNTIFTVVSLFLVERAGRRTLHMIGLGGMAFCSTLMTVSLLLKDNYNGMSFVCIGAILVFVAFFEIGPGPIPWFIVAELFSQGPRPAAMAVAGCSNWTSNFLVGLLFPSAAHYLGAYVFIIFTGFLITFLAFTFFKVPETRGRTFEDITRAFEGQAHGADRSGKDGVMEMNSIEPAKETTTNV", "test": "biochemical", "procedure": "The recombinant human glucose transporter GLUT1(N45T) and E. coli (strain O157:H7) D-xylose:proton symporter XylE were expressed and purified as described previously[17],[26]. […] In brief, the cDNA of human GLUT3 was cloned into a modified pFastBac vector (Invitrogen) fused with an N-terminal His10 tag. All mutants were generated by standard PCR-based strategy.\nas §2"}, "GLUT3 E378A": {"molecular_target": "T2, GLUT3 E378A (Homo sapiens, UniProt P11169, E378A/N43T)", "T2 construct": "His10 (N); made in house; host or cells: Sf9 insect cells (baculovirus)", "T2 sequence (P11169 1-496 N43T/E378A)": "T1 sequence (P11169 1-496 N43T) with E378A", "test": "MST binding assay, GLUT3 variant", "details": "read-out: Kd of SA47", "procedure": "as §1, §2"}, "GLUT3 N32A": {"molecular_target": "T3, GLUT3 N32A (Homo sapiens, UniProt P11169, N32A/N43T)", "T3 construct": "His10 (N); made in house; host or cells: Sf9 insect cells (baculovirus)", "T3 sequence (P11169 1-496 N32A/N43T)": "T1 sequence (P11169 1-496 N43T) with N32A", "test": "MST binding assay, GLUT3 variant", "details": "read-out: Kd of SA47", "procedure": "as §1, §2"}}, "note": "Residue numbers refer to the chain shown, from its start."}
{"smiles": "COC(=O)CCNCc1ccccc1-n1ncc2c(N3CCN(c4cc(F)ccc4OC)CC3)ncnc21", "note": "[SA47]", "values": [{"measurement": "Figure 2c: MST binding curve, Mean", "setting": "WT GLUT3; M -4.30103", "value": 93.1623}, {"measurement": "Figure 2c: MST binding curve, Mean", "setting": "WT GLUT3; M -4.60206", "value": 97.5688}, {"measurement": "Figure 2c: MST binding curve, Mean", "setting": "WT GLUT3; M -4.90309", "value": 103.147}, {"measurement": "Figure 2c: MST binding curve, Mean", "setting": "WT GLUT3; M -5.20412", "value": 93.0436}, {"measurement": "Figure 2c: MST binding curve, Mean", "setting": "WT GLUT3; M -5.50515", "value": 92.2406}, {"measurement": "Figure 2c: MST binding curve, Mean", "setting": "WT GLUT3; M -5.80618", "value": 84.0843}, {"measurement": "Figure 2c: MST binding curve, Mean", "setting": "WT GLUT3; M -6.10721", "value": 63.9676}, {"measurement": "Figure 2c: MST binding curve, Mean", "setting": "WT GLUT3; M -6.40824", "value": 36.3211}, {"measurement": "Figure 2c: MST binding curve, Mean", "setting": "WT GLUT3; M -7.0103", "value": 13.9692}, {"measurement": "Figure 2c: MST binding curve, Mean", "setting": "WT GLUT3; M -7.31133", "value": 8.298}, {"measurement": "Figure 2c: MST binding curve, Mean", "setting": "WT GLUT3; M -7.61236", "value": 1.1474}, {"measurement": "Figure 2c: MST binding curve, Mean", "setting": "WT GLUT3; M -7.91339", "value": 0.7084}, {"measurement": "Figure 2c: MST binding curve, Mean", "setting": "WT GLUT3; M -8.21442", "value": 2.7164}, {"measurement": "Figure 2c: MST binding curve, Mean", "setting": "WT GLUT3; M -8.51545", "value": 2.4811}, {"measurement": "Figure 2c: MST binding curve, Mean", "setting": "WT GLUT3; M -8.81648", "value": 1.1039}, {"measurement": "Kd", "setting": "WT GLUT3; WT GLUT3", "value": "317 ± 47.2", "unit": "nM"}, {"measurement": "Kd", "setting": "GLUT3 F70A", "value": "1500 ± 200", "unit": "nM"}, {"measurement": "Kd", "setting": "GLUT3 E378A", "value": "1100 ± 100", "unit": "nM"}, {"measurement": "Kd", "setting": "GLUT3 N32A", "value": "941 ± 213", "unit": "nM"}]}
